Source: PubChem BioAssay AID248 (DTP/NCI, 2004)
Inconclusive results and toxic doses are left out. Cut-off read from the data, not from the text of the source: active = T/C of 150% or more; inactive = T/C below 125%. Square brackets hold non-standard residues; d marks the D form. Peptide text beside a SMILES is read from it. * marks the point of attachment. ξ: configuration not given here. ξF = NC(Cc1ccccc1)C(=O)O; Cbz = O=C(OCc1ccccc1)*

Tested on: L1210 leukemia ip in BDF1 mice, survival T/C
Assay: NCI In Vivo Anticancer Drug Screen. Data for tumor model L1210 Leukemia (intraperitoneal) in B6D2F1 (BDF1) mice
Conditions: endpoint: mean survival time, higher = longer survival
Outline: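 Ratio derived from survival: compound-dosed mice over vehicle-dosed mice, all bearing a transplantable tumor.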

[1] = dose: 100.0 mg/kg/injection, schedule: Q01DX009 (ip), vehicle: saline
[2] = dose: 100.0 mg/kg/injection, schedule: Q04DX003 (ip), vehicle: saline
[3] = dose: 200.0 mg/kg/injection, schedule: Q01DX009 (ip), vehicle: saline
[4] = dose: 200.0 mg/kg/injection, schedule: Q04DX003 (ip), vehicle: saline
[5] = dose: 400.0 mg/kg/injection, schedule: Q01DX009 (ip), vehicle: saline
[6] = dose: 400.0 mg/kg/injection, schedule: Q04DX003 (ip), vehicle: saline
[7] = dose: 100.0 mg/kg/injection, schedule: Q01DX001 (ip), vehicle: Klucel (hydroxypropylcellulose) (HPC)
[8] = dose: 200.0 mg/kg/injection, schedule: Q01DX001 (ip), vehicle: Klucel (hydroxypropylcellulose) (HPC)
[9] = dose: 400.0 mg/kg/injection, schedule: Q01DX001 (ip), vehicle: Klucel (hydroxypropylcellulose) (HPC)

Measured: T/C

COC(=O)C(Cc1ccccc1)NC(=O)CNC(=O)OCc1ccccc1 (stereo not drawn) (Cbz-Gly-[ξF]-OMe)
inactive: dose: 100.0 mg/kg/injection, schedule: Q04DX003 (ip), vehicle: other 106 % of control | dose: 200.0 mg/kg/injection, schedule: Q04DX003 (ip), vehicle: other 101 % of control | dose: 400.0 mg/kg/injection, schedule: Q04DX003 (ip), vehicle: other 106 % of control

Nc1ccc(Nc2ccccc2)c(S(=O)(=O)O)c1
inactive: [1] 107 % of control | [2] 105 % of control | [3] 107 % of control | [4] 92 % of control | [5] 110 % of control | [6] 95 % of control

O=C(NC(C(=O)c1ccccc1)c1ccccc1)c1ccccc1 (stereo not given)
inactive: dose: 50.0 mg/kg/injection, schedule: Q04DX002 (ip), vehicle: Klucel (hydroxypropylcellulose) (HPC) 98 % of control | dose: 100.0 mg/kg/injection, schedule: Q01DX009 (ip), vehicle: Klucel (hydroxypropylcellulose) (HPC) 86 % of control | dose: 100.0 mg/kg/injection, schedule: Q04DX002 (ip), vehicle: Klucel (hydroxypropylcellulose) (HPC) 92 % of control | dose: 200.0 mg/kg/injection, schedule: Q04DX002 (ip), vehicle: Klucel (hydroxypropylcellulose) (HPC) 106 % of control | dose: 400.0 mg/kg/injection, schedule: Q01DX009 (ip), vehicle: Klucel (hydroxypropylcellulose) (HPC) 101 % of control

C/C=C/CC/C(=N\Nc1ccc([N+](=O)[O-])cc1[N+](=O)[O-])c1ccccc1
inactive: [7] 96 % of control | [8] 96 % of control | [9] 100 % of control

CCCc1ccc(OC/C=C(\C)CCC2OC2(C)CC)cc1 (stereo not given)
inactive: dose: 100.0 mg/kg/injection, schedule: Q04DX002 (ip), vehicle: saline with Tween-80 92 % of control | dose: 200.0 mg/kg/injection, schedule: Q04DX002 (ip), vehicle: saline with Tween-80 99 % of control | dose: 400.0 mg/kg/injection, schedule: Q04DX002 (ip), vehicle: saline with Tween-80 92 % of control

O=S(=O)(Cc1ccc(Cl)cc1)c1ccccc1-n1cccc1
inactive: dose: 100.0 mg/kg/injection, schedule: Q04DX003 (ip), vehicle: Klucel (hydroxypropylcellulose) (HPC) 90 % of control | dose: 200.0 mg/kg/injection, schedule: Q04DX003 (ip), vehicle: Klucel (hydroxypropylcellulose) (HPC) 92 % of control | dose: 400.0 mg/kg/injection, schedule: Q04DX003 (ip), vehicle: Klucel (hydroxypropylcellulose) (HPC) 100 % of control

Cc1cccc(C2NC(=O)N3C(c4cccc(C)c4)NC(=O)N23)c1 (stereo not given)
inactive: dose: 100.0 mg/kg/injection, schedule: Q01DX009 (ip), vehicle: gum acacia 89 % of control | dose: 100.0 mg/kg/injection, schedule: Q04DX003 (ip), vehicle: gum acacia 88 % of control | dose: 200.0 mg/kg/injection, schedule: Q01DX009 (ip), vehicle: gum acacia 88 % of control | dose: 200.0 mg/kg/injection, schedule: Q04DX003 (ip), vehicle: gum acacia 93 % of control | dose: 400.0 mg/kg/injection, schedule: Q04DX003 (ip), vehicle: gum acacia 90 % of control

COC(=O)c1cc(C)cc(NS(=O)(=O)c2ccc(C)cc2)c1C
inactive: dose: 50.0 mg/kg/injection, schedule: Q01DX001 (ip), vehicle: carboxymethylcellulose (CMC) 89 % of control | dose: 100.0 mg/kg/injection, schedule: Q01DX001 (ip), vehicle: carboxymethylcellulose (CMC) 86 % of control | dose: 200.0 mg/kg/injection, schedule: Q01DX001 (ip), vehicle: carboxymethylcellulose (CMC) 94 % of control | dose: 400.0 mg/kg/injection, schedule: Q01DX001 (ip), vehicle: carboxymethylcellulose (CMC) 89 % of control

CCOC(=O)c1csc(C)n1
inactive: [1] 103 % of control | [2] 99 % of control | [3] 102 % of control | [4] 96 % of control | [5] 109 % of control | [6] 92 % of control

CCOC(=O)c1ccc(NCC(=O)CNc2nc(N)nc(N)c2[N+](=O)[O-])cc1
inactive: dose: 75.0 mg/kg/injection, schedule: Q01DX001 (ip), vehicle: other 95 % of control | dose: 150.0 mg/kg/injection, schedule: Q01DX001 (ip), vehicle: other 90 % of control | dose: 300.0 mg/kg/injection, schedule: Q01DX001 (ip), vehicle: other 87 % of control

CCOc1ccc(N=Nc2c(O)n(-c3ccccc3)c(=S)n(-c3ccccc3)c2=O)cc1
inactive: [7] 96 % of control | [8] 107 % of control | [9] 100 % of control

Cc1ccc(NS(=O)(=O)c2ccc3ccccc3c2)c(C)c1
inactive: dose: 100.0 mg/kg/injection, schedule: Q01DX009 (ip), vehicle: saline with Tween-80 106 % of control | dose: 100.0 mg/kg/injection, schedule: Q04DX003 (ip), vehicle: saline with Tween-80 89 % of control | dose: 200.0 mg/kg/injection, schedule: Q01DX009 (ip), vehicle: saline with Tween-80 112 % of control | dose: 200.0 mg/kg/injection, schedule: Q04DX003 (ip), vehicle: saline with Tween-80 102 % of control | dose: 400.0 mg/kg/injection, schedule: Q01DX009 (ip), vehicle: saline with Tween-80 107 % of control | dose: 400.0 mg/kg/injection, schedule: Q04DX003 (ip), vehicle: saline with Tween-80 89 % of control
